The target of assay [1] is HLA-DR15 (DRB1*15:01) heterodimer (Homo sapiens, UniProt P01903+P01911). Kind of assay: biochemical. Type of assay: binding.
The target in assay [2] is HLA-DR3 (DRB1*03:01) heterodimer (Homo sapiens, UniProt P01903+P01911, A100K/A102G/A103R/A169T/F55Y/I96L/K41T/L162R/M171V/P40S/Q125H/Q178H/Q39Y/R42S/S66N/T106N/T262R/W38E/Y61H). Kind of assay: biochemical.
The test system of assay [3] is draining lymph node cells of HLA-DR1501 (DRB1*1501) transgenic mice. The class given is cell-based, mouse. The conditions noted are these: primed with 25 μg recombinant ZIKV Env; day 10 DLN cells; positive if > 2 SD above mean without antigen; n = 6; Fig. 2B.
Assay [4] concerns draining lymph node cells of HLA-DQ8 (DQB1*0302) transgenic mice. The class given is cell-based, mouse. The conditions noted are these: n = 6.
In assay [5] the test system is splenocytes of ZIKV (PF13/251013-18) infected AG129 mice. Type of assay: cell-based, mouse. The conditions noted are these: n = 5.
In assay [6] the test system is draining lymph node cells of HLA-DR1 (DRB1*0101) transgenic mice. Type of assay: cell-based, mouse. As to conditions: n = 6.

“Also recorded” adds a separate entry of the source.

The values that follow come from publication PMC5766511 (Scientific Reports, 2018).

Sequence of HLA-DR3 (DRB1*03:01) heterodimer (P01903 26-254 limits assumed, other chains not shown): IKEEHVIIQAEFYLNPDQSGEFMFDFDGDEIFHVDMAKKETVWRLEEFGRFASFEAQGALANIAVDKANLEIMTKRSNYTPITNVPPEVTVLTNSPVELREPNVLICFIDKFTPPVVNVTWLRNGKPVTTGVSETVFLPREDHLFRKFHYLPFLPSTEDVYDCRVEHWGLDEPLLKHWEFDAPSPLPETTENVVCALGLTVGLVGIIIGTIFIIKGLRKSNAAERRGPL

As a reminder, the IC50 is the midpoint of a concentration-inhibition curve. In assay [1], `CC(C)C[C@H](NC(=O)[C@H](Cc1ccc(O)cc1)NC(=O)[C@H](C)NC(=O)[C@H](CCCNC(=N)N)NC(=O)[C@H](CC(C)C)NC(=O)[C@H](CCC(N)=O)NC(=O)[C@H](CCC(=O)O)NC(=O)[C@H](C)NC(=O)[C@@H](N)CCC(=O)O)C(=O)N[C@@H](CC(=O)O)C(=O)NCC(=O)N[C@H](C(=O)NCC(=O)N[C@H](C(=O)N[C@@H](CCC(=O)O)C(=O)O)C(C)C)[C@@H](C)O` [A3 152–166] displayed a half-inhibitory concentration (IC50) of 40 nM. In other words, the double-digit nanomolar range. `CC[C@H](C)[C@H](NC(=O)[C@@H](NC(=O)[C@H](CCCCN)NC(=O)[C@H](C)NC(=O)[C@H](C)N)[C@@H](C)O)C(=O)N[C@@H](C)C(=O)N[C@@H](Cc1ccc(O)cc1)C(=O)N[C@@H](CC(=O)O)C(=O)N[C@@H](CCC(=O)O)C(=O)N[C@@H](CCC(=O)O)C(=O)N[C@@H](C)C(=O)N[C@@H](CCCNC(=N)N)C(=O)N[C@@H](CCCNC(=N)N)C(=O)NCC(=O)N[C@@H](CC(C)C)C(=O)N[C@@H](CCC(=O)O)C(=O)O` [MT2-16] came in with an IC50 in assay [2] of 50 nM.

Take FNCLGMSNRDFLEGVSGATW [WNV P1]: the “IFNγ ELISpot response of ZIKV Env primed T cells to peptide (in words), HLA-DR1501” value in assay [3] is recorded as “cross-reactive responses”. The “IFNγ ELISpot response of ZIKV Env primed T cells to peptide (in words), HLA-DQ8” value in assay [4] is “significant responses”. Besides, in assay [5], the “IFNγ ELISpot response of splenic cells to peptide” value is reported as “Strong responses; also recorded: of similar magnitude to the ZIKV p1 response”. Moreover, the “IFNγ ELISpot response of ZIKV Env primed T cells to peptide (in words), HLA-DR1” value in assay [6] is listed as “significant responses”. As to “KAACPTMGEAHNDKRADPAF [WNV P8, WNV Env variant of ZIKV Env peptide 8]”, the “IFNγ ELISpot response of ZIKV Env primed T cells to peptide (in words), HLA-DQ8” value in assay [4] was “cross-reactive epitope recognition”.
